In ChEMBL document CHEMBL5247592, “Discovery of novel VEGFR-2-PROTAC degraders based on the localization of lysine residues via recruiting VHL for the treatment of gastric cancer” (Eur J Med Chem, 2022):
Activity calls are given as the source filed them. The rule behind the calls is not given here.

Key:
[1] = biological target: T1, von Hippel-Lindau disease tumor suppressor/Vascular endothelial growth factor receptor 2 (Homo sapiens, UniProt P35968+P40337); experiment: PROTAC activity at VHL/VEGFR2 in human HGC-27 cells assessed as induction of VEGFR2 degradation at 1 uM measured after 36 hrs by Western blot analysis relative to control; type: cell-based
Target sequence in this assay (P35968 20-1356 limits assumed): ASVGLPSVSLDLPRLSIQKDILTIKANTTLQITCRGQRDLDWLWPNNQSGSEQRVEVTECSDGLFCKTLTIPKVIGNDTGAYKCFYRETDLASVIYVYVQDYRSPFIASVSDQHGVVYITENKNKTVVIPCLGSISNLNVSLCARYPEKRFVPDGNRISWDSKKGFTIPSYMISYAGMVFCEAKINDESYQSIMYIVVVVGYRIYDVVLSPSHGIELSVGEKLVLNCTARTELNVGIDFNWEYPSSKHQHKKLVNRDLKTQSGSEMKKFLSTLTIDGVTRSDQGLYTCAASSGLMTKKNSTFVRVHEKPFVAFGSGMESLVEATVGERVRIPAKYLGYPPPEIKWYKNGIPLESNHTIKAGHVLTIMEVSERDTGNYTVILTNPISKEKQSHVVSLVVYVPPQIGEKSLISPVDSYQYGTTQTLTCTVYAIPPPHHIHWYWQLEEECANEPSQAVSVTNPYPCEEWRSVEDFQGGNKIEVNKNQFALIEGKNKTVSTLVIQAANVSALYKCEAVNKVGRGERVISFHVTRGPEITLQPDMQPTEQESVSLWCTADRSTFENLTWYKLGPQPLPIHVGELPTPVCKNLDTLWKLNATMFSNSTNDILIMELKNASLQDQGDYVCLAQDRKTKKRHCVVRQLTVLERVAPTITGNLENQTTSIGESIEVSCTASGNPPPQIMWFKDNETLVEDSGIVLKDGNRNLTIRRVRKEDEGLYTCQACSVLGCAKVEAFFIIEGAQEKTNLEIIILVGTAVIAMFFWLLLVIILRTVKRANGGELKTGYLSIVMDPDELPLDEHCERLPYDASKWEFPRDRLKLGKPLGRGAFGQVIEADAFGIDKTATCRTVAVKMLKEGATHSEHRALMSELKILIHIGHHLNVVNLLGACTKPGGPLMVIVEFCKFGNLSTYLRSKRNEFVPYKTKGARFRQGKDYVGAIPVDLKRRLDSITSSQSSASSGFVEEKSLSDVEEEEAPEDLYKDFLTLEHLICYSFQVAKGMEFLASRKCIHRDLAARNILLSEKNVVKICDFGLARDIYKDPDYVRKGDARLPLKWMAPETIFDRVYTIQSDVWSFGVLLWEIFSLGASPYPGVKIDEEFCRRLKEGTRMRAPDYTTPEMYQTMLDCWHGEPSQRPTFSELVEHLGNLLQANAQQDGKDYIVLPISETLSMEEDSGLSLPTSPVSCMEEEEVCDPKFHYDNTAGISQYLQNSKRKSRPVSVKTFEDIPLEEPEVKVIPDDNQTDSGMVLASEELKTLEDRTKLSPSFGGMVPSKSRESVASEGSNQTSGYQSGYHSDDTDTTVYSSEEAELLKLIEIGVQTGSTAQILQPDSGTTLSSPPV
Target sequence in this assay (P40337 whole entry partner): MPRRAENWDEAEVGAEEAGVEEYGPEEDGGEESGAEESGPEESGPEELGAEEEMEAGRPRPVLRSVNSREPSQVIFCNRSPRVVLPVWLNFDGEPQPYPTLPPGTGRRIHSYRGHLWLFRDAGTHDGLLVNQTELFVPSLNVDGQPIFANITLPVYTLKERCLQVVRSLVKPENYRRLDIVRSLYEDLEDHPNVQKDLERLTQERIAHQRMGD

HGC-27 [2] = experiment: Induction of apoptosis in human HGC-27 cells assessed as viable cells at 1 uM incubated for 24 hrs by Annexin V-FITC/PI staining based analysis (reference value: 95.3%); type: functional; settings: read-out: Activity
[3] = Cytotoxicity against HEK293T cells assessed as inhibition of cell growth incubated for 72 hrs by MTT assay; type: toxicity, cell-based, HEK-293T; settings: human
HGC-27 [4] = experiment: Induction of apoptosis in human HGC-27 cells assessed as early apoptotic cells at 0.1 uM incubated for 24 hrs by Annexin V-FITC/PI staining based analysis (reference value: 1.7 %); type: functional
[5] = biological target: T1, von Hippel-Lindau disease tumor suppressor/Vascular endothelial growth factor receptor 2; experiment: PROTAC activity at VHL/VEGFR2 in human HGC-27 cells assessed as reduction in VEGFR2 protein expression at 1 uM measured upto 24 hrs in the presence of cycloheximide by Western blot analysis; type: cell-based
Target sequence in this assay (P35968 20-1356 limits assumed): as the sequence (P35968 20-1356 limits assumed) above
Target sequence in this assay (P40337 whole entry partner): as the sequence (P40337 whole entry partner) above

[6] = biological target: T1, von Hippel-Lindau disease tumor suppressor/Vascular endothelial growth factor receptor 2; experiment: PROTAC activity at VHL/VEGFR2 in human HGC-27 cells assessed as residual activity by measuring VEGFR2 expression level at 1 uM incubated for 24 hrs followed by compound washout and measured after 4 hrs by Western blot analysis relative to control; type: cell-based
Target sequence in this assay (P35968 20-1356 limits assumed): as the sequence (P35968 20-1356 limits assumed) above
Target sequence in this assay (P40337 whole entry partner): as the sequence (P40337 whole entry partner) above

HGC-27 [7] = experiment: Induction of cell cycle arrest in human HGC-27 cells assessed as S phase cells at 0.033 uM incubated for 24 hrs by PI staining based flow cytometric analysis (reference value: 26.4%); type: functional
[8] = Effect on VEGFR2 mRNA expression in human HGC-27 cells at 0.1 uM incubated for 24 hrs by qPCR analysis relative to control; type: functional
[9] = biological target: T1, von Hippel-Lindau disease tumor suppressor/Vascular endothelial growth factor receptor 2; experiment: PROTAC activity at VHL/VEGFR2 in human HGC-27 cells assessed as induction of VEGRF2 protein degradation at 1 uM preincubated with MLN4924 for 2 hrs followed by compound addition and measured after 24 hrs by Western blot analysis; type: cell-based
Target sequence in this assay (P35968 20-1356 limits assumed): as the sequence (P35968 20-1356 limits assumed) above
Target sequence in this assay (P40337 whole entry partner): as the sequence (P40337 whole entry partner) above

[10] = biological target: T1, von Hippel-Lindau disease tumor suppressor/Vascular endothelial growth factor receptor 2; experiment: PROTAC activity at VHL/VEGFR2 in human HGC-27 cells assessed as residual activity by measuring VEGFR2 expression level at 1 uM incubated for 24 hrs followed by compound washout and measured after 24 hrs by Western blot analysis relative to control; type: cell-based
Target sequence in this assay (P35968 20-1356 limits assumed): as the sequence (P35968 20-1356 limits assumed) above
Target sequence in this assay (P40337 whole entry partner): as the sequence (P40337 whole entry partner) above

HGC-27 [11] = experiment: Inhibition of cell migration in human HGC-27 cells assessed as suppression of cell migration at 1 uM incubated for 6 hrs by wound healing assay relative to control; type: functional
HGC-27 [12] = experiment: Inhibition of cell migration in human HGC-27 cells measured upto 24 hrs by wound healing assay; type: functional, cell-based; settings: dose 0.033-3.33 µM
[13] = biological target: T1, von Hippel-Lindau disease tumor suppressor/Vascular endothelial growth factor receptor 2; experiment: PROTAC activity at VHL/VEGFR2 in human HGC-27 cells assessed as reduction in relative VEGRF2 expression level at 1 uM preincubated with 4-Amino-N-(6-(1-(2-((4-methyl-3-(trifluoromethyl)phenyl)amino)-2-oxoethyl)-1H-pyrazol-4-y1)-1H-indazol-3-Abenzamide for 2 hrs followed by compound addition and measured after 24 hrs by Western blot analysis; type: cell-based
Target sequence in this assay (P35968 20-1356 limits assumed): as the sequence (P35968 20-1356 limits assumed) above
Target sequence in this assay (P40337 whole entry partner): as the sequence (P40337 whole entry partner) above

HGC-27 [14] = experiment: Induction of apoptosis in human HGC-27 cells assessed as necrotic cells at 1 uM incubated for 24 hrs by Annexin V-FITC/PI staining based analysis (reference value: 0.65 %); type: functional
[15] = biological target: T1, von Hippel-Lindau disease tumor suppressor/Vascular endothelial growth factor receptor 2; experiment: PROTAC activity at VHL/VEGFR2 in human HGC-27 cells assessed as reduction in VEGFR2 protein level at 1 uM by Western blot analysis; type: cell-based; settings: time 12-36 hrs, TDE = time-dependent effect
[16] = biological target: T1, von Hippel-Lindau disease tumor suppressor/Vascular endothelial growth factor receptor 2; experiment: PROTAC activity at VHL/VEGFR2 in HUVEC cells assessed as reduction in VEGFR2 protein level incubated for 24 hrs by Western blot analysis; type: cell-based
HGC-27 [17] = experiment: Induction of cell cycle arrest in human HGC-27 cells assessed as G0/G1 phase cells at 0.1 uM incubated for 24 hrs by PI staining based flow cytometric analysis (reference value: 47.4%); type: functional
[18] = biological target: T1, von Hippel-Lindau disease tumor suppressor/Vascular endothelial growth factor receptor 2; experiment: PROTAC activity at VHL/VEGFR2 in human HGC-27 cells assessed as induction of VEGFR2 degradation at 1 uM measured after 8 hrs by Western blot analysis relative to control; type: cell-based
HGC-27 [19] = experiment: Induction of cell cycle arrest in human HGC-27 cells assessed as G2/M phase cells at 1 uM incubated for 24 hrs by PI staining based flow cytometric analysis (reference value: 13.3%); type: functional
HGC-27 [20] = experiment: Induction of apoptosis in human HGC-27 cells assessed as late apoptotic cells at 0.33 uM incubated for 24 hrs by Annexin V-FITC/PI staining based analysis (reference value: 3%); type: functional
HGC-27 [21] = experiment: Induction of cell cycle arrest in human HGC-27 cells assessed as G0/G1 phase cells at 1 uM incubated for 24 hrs by PI staining based flow cytometric analysis (reference value: 47.4%); type: functional
HGC-27 [22] = experiment: Induction of apoptosis in human HGC-27 cells assessed as late apoptotic cells at 0.1 uM incubated for 24 hrs by Annexin V-FITC/PI staining based analysis (reference value: 3%); type: functional
HGC-27 [23] = experiment: Induction of apoptosis in human HGC-27 cells assessed as late apoptotic cells at 0.033 uM incubated for 24 hrs by Annexin V-FITC/PI staining based analysis (reference value: 3%); type: functional
HGC-27 [24] = experiment: Induction of apoptosis in human HGC-27 cells assessed as late apoptotic cells at 1 uM incubated for 24 hrs by Annexin V-FITC/PI staining based analysis (reference value: 3%); type: functional
[25] = biological target: T1, von Hippel-Lindau disease tumor suppressor/Vascular endothelial growth factor receptor 2; experiment: PROTAC activity at VHL/VEGFR2 in human HGC-27 cells assessed as reduction in relative VEGRF2 expression level at 1 uM preincubated with MG-132 for 2 hrs followed by compound addition and measured after 24 hrs by Western blot analysis; type: cell-based
[26] = Effect on VEGFR2 mRNA expression in human HGC-27 cells at 0.33 uM incubated for 24 hrs by qPCR analysis relative to control; type: functional
[27] = biological target: T1, von Hippel-Lindau disease tumor suppressor/Vascular endothelial growth factor receptor 2; experiment: PROTAC activity at VHL/VEGFR2 in human HGC-27 cells assessed as reduction in VEGFR2 protein level incubated for 24 hrs by Western blot analysis; type: cell-based
Target sequence in this assay (P35968 whole entry): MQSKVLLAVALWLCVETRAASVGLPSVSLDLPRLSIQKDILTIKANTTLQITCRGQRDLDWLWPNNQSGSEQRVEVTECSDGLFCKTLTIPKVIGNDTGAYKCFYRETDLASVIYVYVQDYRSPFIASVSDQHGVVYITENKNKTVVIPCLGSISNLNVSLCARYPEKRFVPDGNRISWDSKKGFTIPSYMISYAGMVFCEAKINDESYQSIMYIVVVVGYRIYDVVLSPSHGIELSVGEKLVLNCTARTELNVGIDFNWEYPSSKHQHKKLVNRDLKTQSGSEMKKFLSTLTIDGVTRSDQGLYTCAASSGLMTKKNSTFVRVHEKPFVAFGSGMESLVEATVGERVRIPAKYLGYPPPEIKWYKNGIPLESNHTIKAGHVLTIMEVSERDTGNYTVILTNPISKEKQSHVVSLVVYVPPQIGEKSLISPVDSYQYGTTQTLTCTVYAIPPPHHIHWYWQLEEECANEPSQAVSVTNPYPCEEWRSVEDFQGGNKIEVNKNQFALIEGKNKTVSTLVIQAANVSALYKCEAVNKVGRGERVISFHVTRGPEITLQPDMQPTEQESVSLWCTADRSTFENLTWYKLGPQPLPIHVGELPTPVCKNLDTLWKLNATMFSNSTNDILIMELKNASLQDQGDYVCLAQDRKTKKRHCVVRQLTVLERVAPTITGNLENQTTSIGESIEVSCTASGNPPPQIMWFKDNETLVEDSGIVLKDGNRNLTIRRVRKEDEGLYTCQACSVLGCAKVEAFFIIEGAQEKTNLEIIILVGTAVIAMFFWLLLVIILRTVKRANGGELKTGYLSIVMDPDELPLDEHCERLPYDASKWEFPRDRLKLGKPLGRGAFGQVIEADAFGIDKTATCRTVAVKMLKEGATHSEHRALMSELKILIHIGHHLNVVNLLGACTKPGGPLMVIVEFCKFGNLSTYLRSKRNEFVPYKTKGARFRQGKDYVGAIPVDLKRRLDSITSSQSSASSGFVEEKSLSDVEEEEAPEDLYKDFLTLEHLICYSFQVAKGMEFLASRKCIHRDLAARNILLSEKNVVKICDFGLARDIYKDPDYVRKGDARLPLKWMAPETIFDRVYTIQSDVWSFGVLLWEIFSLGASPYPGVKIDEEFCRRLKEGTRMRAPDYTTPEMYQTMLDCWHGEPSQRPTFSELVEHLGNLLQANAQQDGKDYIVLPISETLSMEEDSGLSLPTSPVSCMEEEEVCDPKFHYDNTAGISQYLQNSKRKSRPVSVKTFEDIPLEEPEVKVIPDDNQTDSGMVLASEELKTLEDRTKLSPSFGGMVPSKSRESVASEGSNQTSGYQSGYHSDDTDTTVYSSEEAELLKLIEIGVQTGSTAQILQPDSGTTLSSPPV
Target sequence in this assay (P40337 whole entry): as the sequence (P40337 whole entry partner) above

HGC-27 [28] = experiment: Induction of apoptosis in human HGC-27 cells assessed as viable cells at 0.033 uM incubated for 24 hrs by Annexin V-FITC/PI staining based analysis (reference value: 95.3%); type: functional; settings: read-out: Activity
HGC-27 [29] = experiment: Induction of apoptosis in human HGC-27 cells assessed as viable cells at 0.1 uM incubated for 24 hrs by Annexin V-FITC/PI staining based analysis (reference value: 95.3%); type: functional; settings: read-out: Activity
[30] = biological target: T1, von Hippel-Lindau disease tumor suppressor/Vascular endothelial growth factor receptor 2; experiment: PROTAC activity at VHL/VEGFR2 in human HGC-27 cells assessed as […] at 1 uM measured upto 24 hrs in the presence of cycloheximide by Western blot analysis; type: cell-based
HGC-27 [31] = experiment: Inhibition of colony formation in human HGC-27 cells incubated for 8 days by crystal violet staining based analysis; type: functional, cell-based; settings: dose 0.033-3.33 µM, time 8.0 day
HGC-27 [32] = experiment: Induction of cell cycle arrest in human HGC-27 cells assessed as G0/G1 phase cells at 3.33 uM incubated for 24 hrs by PI staining based flow cytometric analysis (reference value: 47.4%); type: functional
HGC-27 [33] = experiment: Induction of apoptosis in human HGC-27 cells assessed as early apoptotic cells at 0.33 uM incubated for 24 hrs by Annexin V-FITC/PI staining based analysis (reference value: 1.7 %); type: functional

Activity [1]: 60.6% | Activity [5]: Active | Activity [6]: 32.8% | Activity [9]: inactive | Activity [10]: 77% | Activity [13]: inactive | Activity [15]: Tde | Activity [16]: Dose-Dependent Effect | EC50 [16]: 510 nM | Activity [18]: 18.2% | Activity [25]: inactive | EC50 [27]: 84 nM | Activity [30]: Active
SMILES: Cc1ccc(NC(=O)Cn2cc(-c3ccc4c(NC(=O)c5ccc(NC(=O)CCCCCCCCC(=O)N[C@H](C(=O)N6C[C@H](O)C[C@H]6C(=O)NCc6ccc(-c7scnc7C)cc6)C(C)(C)C)cc5)n[nH]c4c3)cn2)cc1C(F)(F)F
viability at 1 µM (HGC-27 [2]): 76.5% | IC50 at 72 h [3]: 14500 nM | Activity (HGC-27 [4]): 3.5% | Activity (HGC-27 [7]): 27.9% | Activity [8]: 90% | inhibition at 1 µM (HGC-27 [11]): 11.7% | inhibition (HGC-27 [12]): Dose-Dependent Effect | Activity (HGC-27 [14]): 0.64% | Activity (HGC-27 [17]): 44.3% | Activity (HGC-27 [19]): 45.9% | Activity (HGC-27 [20]): 6.7% | Activity (HGC-27 [21]): 12.5% | Activity (HGC-27 [22]): 4.2% | Activity (HGC-27 [23]): 3% | Activity (HGC-27 [24]): 14.2% | Activity [26]: 83% | viability at 0.033 µM (HGC-27 [28]): 93% | viability at 0.1 µM (HGC-27 [29]): 92.1% | inhibition (HGC-27 [31]): Dose-Dependent Effect | Activity (HGC-27 [32]): 14.1% | Activity (HGC-27 [33]): 3.2%
